Experimental data reported in patent US11993599B2, “Therapeutic compounds” (Genentech, Inc., priority 2021, dated 2024).

What was measured:
BRM = BRM (Homo sapiens, UniProt P51531); test: Immunofluorescence assay for BRM degradation in SW1573 cells; format: cell-based; set-up: treated overnight at 4° C. with either BRM primary antibody (Cell signaling Cat #11966) or BRG primary antibody; endogenous in cells; host or cells: SW1573; conditions: 20 hours incubation; for DC50: immunofluorescence mean nuclear signal, read-out: BRM IF Degradation IC50; for BRM IF Degradation Sinf (%): normalized to a known degrader control
Chain of BRM (P51531 whole entry): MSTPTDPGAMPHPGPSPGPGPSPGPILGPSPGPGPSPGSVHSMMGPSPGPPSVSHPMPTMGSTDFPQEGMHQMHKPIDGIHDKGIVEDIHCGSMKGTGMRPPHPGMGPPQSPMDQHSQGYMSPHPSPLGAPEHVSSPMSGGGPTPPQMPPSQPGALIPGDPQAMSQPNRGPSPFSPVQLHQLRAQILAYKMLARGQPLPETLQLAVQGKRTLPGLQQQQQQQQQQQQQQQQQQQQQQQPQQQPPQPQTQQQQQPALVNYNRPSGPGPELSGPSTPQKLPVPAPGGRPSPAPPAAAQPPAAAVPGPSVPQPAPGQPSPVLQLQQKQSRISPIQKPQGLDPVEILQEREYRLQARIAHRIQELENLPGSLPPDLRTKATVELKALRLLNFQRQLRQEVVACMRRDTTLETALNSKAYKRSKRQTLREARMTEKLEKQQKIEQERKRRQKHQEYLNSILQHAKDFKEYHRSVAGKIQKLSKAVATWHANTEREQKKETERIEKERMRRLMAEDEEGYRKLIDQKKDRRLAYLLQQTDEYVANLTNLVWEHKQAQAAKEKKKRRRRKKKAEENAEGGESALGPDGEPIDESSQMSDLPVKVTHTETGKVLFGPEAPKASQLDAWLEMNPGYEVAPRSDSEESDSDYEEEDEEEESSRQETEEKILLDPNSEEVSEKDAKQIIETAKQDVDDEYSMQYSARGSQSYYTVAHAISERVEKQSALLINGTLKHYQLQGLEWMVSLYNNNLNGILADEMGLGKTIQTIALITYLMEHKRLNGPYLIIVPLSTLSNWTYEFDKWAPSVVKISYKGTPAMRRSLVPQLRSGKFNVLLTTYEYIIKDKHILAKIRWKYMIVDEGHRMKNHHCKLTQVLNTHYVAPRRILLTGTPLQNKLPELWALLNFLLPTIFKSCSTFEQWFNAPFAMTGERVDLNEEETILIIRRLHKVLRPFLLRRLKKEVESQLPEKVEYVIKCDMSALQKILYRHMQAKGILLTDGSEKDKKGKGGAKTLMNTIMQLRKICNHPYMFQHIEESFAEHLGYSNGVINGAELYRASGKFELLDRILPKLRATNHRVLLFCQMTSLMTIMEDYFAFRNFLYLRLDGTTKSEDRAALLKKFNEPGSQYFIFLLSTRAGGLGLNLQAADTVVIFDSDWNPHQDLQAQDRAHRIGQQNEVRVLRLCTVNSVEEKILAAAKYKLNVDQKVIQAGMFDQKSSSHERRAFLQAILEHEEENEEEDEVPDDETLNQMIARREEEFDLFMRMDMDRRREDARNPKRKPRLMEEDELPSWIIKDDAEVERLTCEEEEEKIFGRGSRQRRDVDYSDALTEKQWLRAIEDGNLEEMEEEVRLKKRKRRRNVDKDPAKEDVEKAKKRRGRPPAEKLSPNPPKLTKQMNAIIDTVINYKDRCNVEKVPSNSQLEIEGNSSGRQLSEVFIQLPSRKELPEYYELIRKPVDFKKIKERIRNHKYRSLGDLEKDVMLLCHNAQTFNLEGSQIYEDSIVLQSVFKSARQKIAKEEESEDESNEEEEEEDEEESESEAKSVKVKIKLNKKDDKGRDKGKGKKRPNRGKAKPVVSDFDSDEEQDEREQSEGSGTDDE
How it was run: (§1)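 Cells seeded one day before dosing, exposed to compounds for 20 hours, then fixed, permeabilized, blocked and stained overnight at 4 °C with anti-BRM or anti-BRG1 antibody. Nuclear fluorescence intensity per cell, normalized to a degrader control, gave concentration-response curves fitted with a floating maximum.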

BRG1 = biological target: T1, BRG1 (Homo sapiens, UniProt P51532); test: Immunofluorescence assay for BRG1 degradation in SW1573 cells; format: cell-based; conditions: 20 hours incubation; for DC50: immunofluorescence mean nuclear signal, read-out: BRG1 IF Degradation IC50; for Dmax: SW1573, 20 h, normalized to a known degrader control, read-out: BRG1 IF Degradation Sinf (%)
T1 construct: either BRM primary antibody (Cell signaling Cat #11966) or BRG primary antibody (Abcam, ab 110641); endogenous in cells; host or cells: SW1573
T1 sequence (P51532 whole entry): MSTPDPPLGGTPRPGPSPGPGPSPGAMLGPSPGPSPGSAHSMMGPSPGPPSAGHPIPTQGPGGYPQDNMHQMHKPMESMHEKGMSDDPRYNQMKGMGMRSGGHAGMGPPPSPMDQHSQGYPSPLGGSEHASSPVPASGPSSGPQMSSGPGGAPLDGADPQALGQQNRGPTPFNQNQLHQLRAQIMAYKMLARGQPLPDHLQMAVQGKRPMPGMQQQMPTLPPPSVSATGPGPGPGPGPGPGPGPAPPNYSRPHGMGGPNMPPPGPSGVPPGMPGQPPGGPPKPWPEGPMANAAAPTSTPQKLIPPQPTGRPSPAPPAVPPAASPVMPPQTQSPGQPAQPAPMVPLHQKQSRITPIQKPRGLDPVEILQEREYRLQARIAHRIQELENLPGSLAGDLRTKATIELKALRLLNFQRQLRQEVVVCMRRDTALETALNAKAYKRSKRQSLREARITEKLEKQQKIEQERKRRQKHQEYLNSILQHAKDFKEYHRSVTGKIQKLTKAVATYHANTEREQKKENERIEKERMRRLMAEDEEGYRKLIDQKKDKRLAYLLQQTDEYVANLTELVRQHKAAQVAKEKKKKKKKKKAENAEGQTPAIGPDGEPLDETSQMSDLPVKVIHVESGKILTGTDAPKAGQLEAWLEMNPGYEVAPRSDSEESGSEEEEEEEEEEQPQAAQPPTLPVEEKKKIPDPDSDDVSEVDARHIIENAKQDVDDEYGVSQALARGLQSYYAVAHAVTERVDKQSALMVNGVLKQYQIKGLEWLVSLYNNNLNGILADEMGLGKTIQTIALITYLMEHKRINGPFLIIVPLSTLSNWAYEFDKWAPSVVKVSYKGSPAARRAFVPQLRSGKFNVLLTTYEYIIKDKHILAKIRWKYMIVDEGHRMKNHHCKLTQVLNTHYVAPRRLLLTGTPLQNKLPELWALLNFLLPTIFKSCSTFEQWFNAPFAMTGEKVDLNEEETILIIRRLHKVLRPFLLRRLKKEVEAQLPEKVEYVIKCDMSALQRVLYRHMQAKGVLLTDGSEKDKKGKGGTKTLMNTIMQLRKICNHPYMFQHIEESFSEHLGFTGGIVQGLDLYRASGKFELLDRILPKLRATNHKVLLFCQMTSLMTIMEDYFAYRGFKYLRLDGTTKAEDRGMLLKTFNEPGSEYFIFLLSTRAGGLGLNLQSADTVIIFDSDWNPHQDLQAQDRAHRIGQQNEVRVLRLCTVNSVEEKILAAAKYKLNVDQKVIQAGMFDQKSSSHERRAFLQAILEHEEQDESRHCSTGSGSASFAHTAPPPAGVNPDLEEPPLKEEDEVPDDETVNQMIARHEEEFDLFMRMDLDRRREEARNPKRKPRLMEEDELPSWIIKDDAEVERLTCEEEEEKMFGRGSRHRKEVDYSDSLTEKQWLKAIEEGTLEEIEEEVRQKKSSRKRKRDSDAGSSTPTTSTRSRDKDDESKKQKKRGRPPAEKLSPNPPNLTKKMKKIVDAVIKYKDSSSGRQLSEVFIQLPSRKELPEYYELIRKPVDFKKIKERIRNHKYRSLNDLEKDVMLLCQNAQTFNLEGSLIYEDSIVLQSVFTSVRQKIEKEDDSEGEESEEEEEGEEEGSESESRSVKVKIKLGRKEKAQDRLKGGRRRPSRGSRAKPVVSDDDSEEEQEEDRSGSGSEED
How it was run: as §1

Row | Structure (SMILES) | DC50 (BRM) | BRM IF Degradation Sinf (%) (BRM) | DC50 (BRG1) | Dmax (BRG1)
1 | Nc1nnc(-c2ccccc2O)cc1N1CC2CCC(C1)N2c1ccnc(C#CCN2CCN(C3CC3)CC2)c1 [Compound 38, 2-[6-amino-5-[8-[2-[3-(4-cyclopropylpiperazin-1-yl)prop-1-ynyl]-4-pyridyl]-3,8-diazabicyclo[3.2.1]octan-3-yl]pyridazin-3-yl]phenol] | 10 to 100 nM | E (E indicates −30%-−70%) | > 100 nM | 
2 | C[C@H]1CCN(CC#Cc2cc(N3C4CCC3CN(c3cc(-c5ccccc5O)nnc3N)C4)ccn2)C1 [Compound 75, 2-(6-amino-5-(8-(2-(3-((S)-3-methylpyrrolidin-1-yl)prop-1-yn-1-yl)pyridin-4-yl)-3,8-diazabicyclo[3.2.1]octan-3-yl)pyridazin-3-yl)phenol] | < 10 nM | E (E indicates −30%-−70%) | < 10 nM | 30 to 70%
3 | Nc1nnc(-c2ccccc2O)cc1N1CC2CCC(C1)N2c1ccnc(C#CCN2CC3CCC3C2)c1 (centres unmarked) [Compound 91, 2-[6-amino-5-[8-[2-[3-(3-azabicyclo[3.2.0]heptan-3-yl)prop-1-ynyl]-4-pyridyl]-3,8-diazabicyclo[3.2.1]octan-3-yl]pyridazin-3-yl]phenol] | < 10 nM | E (E indicates −30%-−70%) | < 10 nM | 30 to 70%
4 | Nc1nnc(-c2ccccc2O)cc1N1CC2CCC(C1)N2c1ccnc(C#CCN2Cc3cccnc3C2)c1 [Compound 56, 2-[6-amino-5-[8-[2-[3-(5,7-dihydropyrrolo[3,4-b]pyridin-6-yl)prop-1-ynyl]-4-pyridyl]-3,8-diazabicyclo[3.2.1]octan-3-yl]pyridazin-3-yl]phenol] | 10 to 100 nM | E (E indicates −30%-−70%) | > 100 nM | 0 to 30%
5 | COCC1(O)CCCN(CC#Cc2cc(N3C4CCC3CN(c3cc(-c5ccccc5O)nnc3N)C4)ccn2)CC1 (centres unmarked) [Compound 207, 1-[3-[4-[3-[3-amino-6-(2-hydroxyphenyl)pyridazin-4-yl]-3,8-diazabicyclo[3.2.1]octan-8-yl]-2-pyridyl]prop-2-ynyl]-4-(methoxymethyl)azepan-4-ol] | 10 to 100 nM | E (E indicates −30%-−70%) | > 100 nM | 71 to 120%
6 | Nc1nnc(-c2ccccc2O)cc1N1CC2CCC(C1)N2c1ccnc(C#CCN2CC(F)(C3CC3)C2)c1 [Compound 238, 2-[6-amino-5-[8-[2-[3-(3-cyclopropyl-3-fluoro-azetidin-1-yl)prop-1-ynyl]-4-pyridyl]-3,8-diazabicyclo[3.2.1]octan-3-yl]pyridazin-3-yl]phenol] | 10 to 100 nM | E (E indicates −30%-−70%) | < 10 nM | 30 to 70%
7 | Nc1nnc(-c2ccccc2O)cc1N1CC2CCC(C1)N2c1ccnc(C#CCN2CCC(O)C2)c1 (centres unmarked) [Compound 52, 1-[3-[4-[3-[3-amino-6-(2-hydroxyphenyl)pyridazin-4-yl]-3,8-diazabicyclo[3.2.1]octan-8-yl]-2-pyridyl]prop-2-ynyl]pyrrolidin-3-ol] | 10 to 100 nM | E (E indicates −30%-−70%) | 10 to 100 nM | 30 to 70%
8 | CC1(O)CCCN(CC#Cc2cc(N3C4CCC3CN(c3cc(-c5ccccc5O)nnc3N)C4)ccn2)CC1 (centres unmarked) [Compound 244, 1-[3-[4-[3-[3-amino-6-(2-hydroxyphenyl)pyridazin-4-yl]-3,8-diazabicyclo[3.2.1]octan-8-yl]-2-pyridyl]prop-2-ynyl]-4-methyl-azepan-4-ol] | 10 to 100 nM | E (E indicates −30%-−70%) | < 10 nM | 30 to 70%
9 | Nc1nnc(-c2ccccc2O)cc1N1CC2CCC(C1)N2c1ccnc(C#CCN2C[C@H]3CCO[C@H]3C2)c1 [Compound 113, 2-[5-[8-[2-[3-[(3aR,6aR)-2,3,3a,4,6,6a-hexahydrofuro[2,3-c]pyrrol-5-yl]prop-1-ynyl]-4-pyridyl]-3,8-diazabicyclo[3.2.1]octan-3-yl]-6-amino-pyridazin-3-yl]phenol] | 10 to 100 nM | E (E indicates −30%-−70%) | < 10 nM | 0 to 30%
